Data as given in article PMC8509398, “Proteolytic Cleavage of Bioactive Peptides and Protease-Activated Receptors in Acute and Post-Colitis” (International Journal of Molecular Sciences, 2021).
Residues, ends and D or L forms follow the SMILES beside them.

Key:
trypsin-1 = trypsin-1 (Homo sapiens, UniProt P07477); assay: Cleavage of peptides by purified trypsin-1, MALDI-TOF/TOF; conditions: 25 nM protease, 10 µM peptide; for Incubation time at which the first cleavage or decrease of the full-length peptide was observed, trypsin-1: 37 °C, time points 2, 5, 10, 30 min; for TL disarming (D), Trypsin-1 / TL unmasking (U), Trypsin-1: PAR-based peptides, 37 °C, 2, 5, 10 and 30 min
Description: (§1) Trypsin-like proteases included in the experiments are trypsin-1, -2 and -3, tryptase (Enzo LifeSciences), thrombin (Sigma-Aldrich) and cathepsin G (Sigma-Aldrich). Trypsin-1, -2 and -3 were produced as described by Koistinen et al. and Wu et al.. Two elastase-like enzymes, neutrophil elastase (Enzo LifeSciences, Farmingdale, NY, USA) and pancreatic elastase I (Sigma-Aldrich) were included as well. All enzymes were from human origin except for pancreatic elastase from porcine pancreas.
(§2) Reaction mixtures with purified enzymes were compiled in an identical way. Each mixture contained an equimolar concentration of protease (25 nM based on) and 10 µM peptide of interest and was incubated for 2, 5, 10 and 30 min at 37 °C. Substance P was added as the standard peptide except for the reaction mixtures with substance P or bradykinin as the peptide of interest, where angiotensin II (Bachem) was added.
(§3) The TFA mixtures were thawed on ice and desalted using C18 zip-tips (Merck Millipore®, Burlington, MA, USA) with a capacity of 5 µg protein. Retained peptide fragments were eluted directly on the MALDI target plate. Next, 0.5 µL of a 2.5 mg/mL α-cyano-4-hydroxycinnamic acid (Sigma-Aldrich) matrix solution (in 70% acetonitrile, 0.1% TFA) was spotted on top of the sample. A 6-Peptide mixture Kit (AB Sciex, Framingham, MA, USA) containing bradykinin (2–9), angiotensin I, glu1-fibrinopeptide, ACTH (1–17), ACTH (18–39) and ACTH (7–38) was diluted with matrix and spotted on the plate as well.
(§4) MS and MS/MS data for peptide fragment identification were obtained with a MALDI-TOF/TOF instrument (4800 MALDI TOF/TOF™, Applied Biosystems, Waltham, MA, USA) and instrument parameters were set using 4000 Series Explorer™ software. MS spectra were recorded in positive reflector mode in a mass range from 500 to 4000 Da and laser intensity of 4500–4800 Hz. The spectra were calibrated using the calibration mixture mentioned above to a mass tolerance of 0.1 Da. MS/MS spectra were recorded with high-energy collision-induced dissociation and the laser intensity was increased by 10%. Precursor mass m/z 1570.65 (Glu1-Fibrinopeptide from the calibration mixture) was used to calibrate the MS/MS spectra to a mass tolerance of 0.1 Da.
(§5) MS and MS/MS spectra were processed using DataExplorer™ software and the obtained output files were uploaded in the MS-PEP data analyzer (https://bioit.shinyapps.io/PARs/ accessed 10/08/2020) for peptide fragment identification. Identified fragments were confirmed using the MS/MS spectra and mMass 5.5.0 by Martin Strohalm. The relative intensities of the fragments were calculated as the ratio of the intensity of the peak of interest to the intensity of the peak of the standard peptide.

trypsin-2 = trypsin-2 (Homo sapiens, UniProt P07478); assay: Cleavage of peptides by purified trypsin-2, MALDI-TOF/TOF; conditions: 25 nM protease, 10 µM peptide; for Incubation time at which the first cleavage or decrease of the full-length peptide was observed, trypsin-2: 37 °C, time points 2, 5, 10, 30 min; for TL disarming (D), Trypsin-2 / TL unmasking (U), Trypsin-2: PAR-based peptides, 37 °C, 2, 5, 10 and 30 min
Sequence of trypsin-2 (P07478 24-247): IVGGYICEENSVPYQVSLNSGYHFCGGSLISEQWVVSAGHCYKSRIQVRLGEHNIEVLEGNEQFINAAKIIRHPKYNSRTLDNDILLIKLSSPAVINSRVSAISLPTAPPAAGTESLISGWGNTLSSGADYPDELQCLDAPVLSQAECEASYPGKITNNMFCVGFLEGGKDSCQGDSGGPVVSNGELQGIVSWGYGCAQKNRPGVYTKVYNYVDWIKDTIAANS
Description: as §1, §2, §3, §4, §5

tryptase = tryptase (Homo sapiens, UniProt Q15661); assay: Cleavage of peptides by purified tryptase, MALDI-TOF/TOF; conditions: 25 nM protease, 10 µM peptide; for Incubation time at which the first cleavage or decrease of the full-length peptide was observed, tryptase: 37 °C, time points 2, 5, 10, 30 min; for TL disarming (D), Tryptase / TL unmasking (U), Tryptase: PAR-based peptides, 37 °C, 2, 5, 10 and 30 min
Sequence of tryptase (Q15661 31-275): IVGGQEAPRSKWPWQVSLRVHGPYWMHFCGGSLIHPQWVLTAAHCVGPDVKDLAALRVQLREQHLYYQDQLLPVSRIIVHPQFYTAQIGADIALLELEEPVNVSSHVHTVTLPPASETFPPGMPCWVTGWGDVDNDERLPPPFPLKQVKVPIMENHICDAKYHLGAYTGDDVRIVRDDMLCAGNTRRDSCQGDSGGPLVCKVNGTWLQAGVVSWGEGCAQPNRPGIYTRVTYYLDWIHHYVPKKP
Description: as §1, §2, §3, §4, §5

thrombin = thrombin (Homo sapiens, UniProt P00734); assay: Cleavage of peptides by purified thrombin, MALDI-TOF/TOF; conditions: 25 nM protease, 10 µM peptide; for Incubation time at which the first cleavage or decrease of the full-length peptide was observed, thrombin: 37 °C, time points 2, 5, 10, 30 min; for TL disarming (D), Thrombin / TL unmasking (U), Thrombin: PAR-based peptides, 37 °C, 2, 5, 10 and 30 min
Description: as §1, §2, §3, §4, §5

cathepsin G = biological target: T1, cathepsin G (Homo sapiens, UniProt P08311); assay: Cleavage of peptides by purified cathepsin G, MALDI-TOF/TOF; conditions: 25 nM protease, 10 µM peptide; for Incubation time at which the first cleavage or decrease of the full-length peptide was observed, cathepsin G: 37 °C, time points 2, 5, 10, 30 min; for TL disarming (D), Cathepsin G / TL unmasking (U), Cathepsin G: PAR-based peptides, 37 °C, 2, 5, 10 and 30 min
T1 sequence (P08311 21-255): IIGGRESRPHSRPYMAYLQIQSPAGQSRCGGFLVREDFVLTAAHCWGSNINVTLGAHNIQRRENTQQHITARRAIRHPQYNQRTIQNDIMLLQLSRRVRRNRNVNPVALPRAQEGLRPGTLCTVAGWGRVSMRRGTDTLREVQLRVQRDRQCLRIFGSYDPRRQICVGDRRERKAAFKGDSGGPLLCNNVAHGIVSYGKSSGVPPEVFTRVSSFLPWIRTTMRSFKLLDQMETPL
Description: as §1
(§6) Reaction mixtures with purified enzymes were compiled in an identical way. […] Substance P was added as the standard peptide except for the reaction mixtures with substance P or bradykinin as the peptide of interest, where angiotensin II (Bachem) was added.
as §3
as §4, with “10%.” for “10%. Precursor mass m/z 1570.65 (Glu1-Fibrinopeptide from the calibration mixture) was used to calibrate the MS/MS spectra to a mass tolerance of 0.1 Da.”
(§7) Identified fragments were confirmed using the MS/MS spectra and mMass 5.5.0 by Martin Strohalm. The relative intensities of the fragments were calculated as the ratio of the intensity of the peak of interest to the intensity of the peak of the standard peptide.

neutrophil elastase = biological target: T2, neutrophil elastase (Homo sapiens, UniProt P08246); assay: Cleavage of peptides by purified neutrophil elastase, MALDI-TOF/TOF; conditions: 25 nM protease, 10 µM peptide; for Incubation time at which the first cleavage or decrease of the full-length peptide was observed, neutrophil elastase: 37 °C, time points 2, 5, 10, 30 min; for TL disarming (D), Neutrophil Elastase / TL unmasking (U), Neutrophil Elastase: PAR-based peptides, 37 °C, 2, 5, 10 and 30 min
T2 sequence (P08246 30-267): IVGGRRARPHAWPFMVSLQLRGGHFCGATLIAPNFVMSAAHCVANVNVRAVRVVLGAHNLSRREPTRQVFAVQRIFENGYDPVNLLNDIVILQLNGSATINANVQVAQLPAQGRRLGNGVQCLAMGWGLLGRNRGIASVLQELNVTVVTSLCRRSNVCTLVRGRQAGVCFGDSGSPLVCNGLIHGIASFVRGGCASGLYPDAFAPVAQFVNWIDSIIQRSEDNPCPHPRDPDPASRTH
Description: as §1, §6, §3
as §4, with “10%.” for “10%. Precursor mass m/z 1570.65 (Glu1-Fibrinopeptide from the calibration mixture) was used to calibrate the MS/MS spectra to a mass tolerance of 0.1 Da.”
as §7

pancreatic elastase I = pancreatic elastase I (Sus scrofa, UniProt P00772); assay: Cleavage of peptides by purified pancreatic elastase, MALDI-TOF/TOF; conditions: 25 nM protease, 10 µM peptide; for Incubation time at which the first cleavage or decrease of the full-length peptide was observed, pancreatic elastase: 37 °C, time points 2, 5, 10, 30 min; for TL disarming (D), Pancreatic Elastase / TL unmasking (U), Pancreatic Elastase: PAR-based peptides, 37 °C, 2, 5, 10 and 30 min
Sequence of pancreatic elastase I (P00772 27-266): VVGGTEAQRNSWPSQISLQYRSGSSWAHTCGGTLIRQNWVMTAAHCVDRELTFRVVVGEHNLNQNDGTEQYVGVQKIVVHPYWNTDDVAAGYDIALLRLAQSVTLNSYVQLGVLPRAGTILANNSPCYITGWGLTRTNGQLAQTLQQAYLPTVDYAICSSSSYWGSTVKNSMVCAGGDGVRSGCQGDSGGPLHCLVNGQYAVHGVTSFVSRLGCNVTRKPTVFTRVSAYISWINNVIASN
Description: as §1, §6, §3
as §4, with “10%.” for “10%. Precursor mass m/z 1570.65 (Glu1-Fibrinopeptide from the calibration mixture) was used to calibrate the MS/MS spectra to a mass tolerance of 0.1 Da.”
as §7

| SMILES | Incubation time at which the first cleavage or decrease of the full-length peptide was observed, trypsin-1 (trypsin-1) | TL disarming (D), Trypsin-1 (trypsin-1) | TL unmasking (U), Trypsin-1 (trypsin-1) | Incubation time at which the first cleavage or decrease of the full-length peptide was observed, trypsin-2 (trypsin-2) | TL disarming (D), Trypsin-2 (trypsin-2) | TL unmasking (U), Trypsin-2 (trypsin-2) | Incubation time at which the first cleavage or decrease of the full-length peptide was observed, tryptase (tryptase) | TL disarming (D), Tryptase (tryptase) | TL unmasking (U), Tryptase (tryptase) | Incubation time at which the first cleavage or decrease of the full-length peptide was observed, thrombin (thrombin) | TL disarming (D), Thrombin (thrombin) | TL unmasking (U), Thrombin (thrombin) | Incubation time at which the first cleavage or decrease of the full-length peptide was observed, cathepsin G (cathepsin G) | TL disarming (D), Cathepsin G (cathepsin G) | TL unmasking (U), Cathepsin G (cathepsin G) | Incubation time at which the first cleavage or decrease of the full-length peptide was observed, neutrophil elastase (neutrophil elastase) | TL disarming (D), Neutrophil Elastase (neutrophil elastase) | TL unmasking (U), Neutrophil Elastase (neutrophil elastase) | TL disarming (D), Pancreatic Elastase (pancreatic elastase I) | TL unmasking (U), Pancreatic Elastase (pancreatic elastase I) | other results |
| --- | --- | --- | --- | --- | --- | --- | --- | --- | --- | --- | --- | --- | --- | --- | --- | --- | --- | --- | --- | --- | --- |
| CC[C@H](C)[C@H](NC(=O)[C@H](CC(C)C)NC(=O)[C@H](CO)NC(=O)[C@H](CCCNC(=N)N)NC(=O)CNC(=O)[C@H](CCCCN)NC(=O)[C@H](CO)NC(=O)[C@H](CO)NC(=O)[C@H](CCCNC(=N)N)NC(=O)[C@H](CC(N)=O)NC(=O)[C@@H](NC(=O)CNC(=O)[C@H](CCC(N)=O)NC(=O)[C@@H](NC(=O)[C@@H](N)[C@@H](C)O)[C@@H](C)CC)[C@@H](C)O)C(=O)NCC(=O)N[C@@H](CCCCN)C(=O)N[C@H](C(=O)N[C@@H](CC(=O)O)C(=O)NCC(=O)N[C@H](C(=O)N[C@@H](CO)C(=O)N[C@@H](Cc1c[nH]cn1)C(=O)N[C@H](C(N)=O)C(C)C)[C@@H](C)O)C(C)C [PAR2-based] (H-TIQGTNRSSKGRSLIGKVDGTSHV-NH2) | 2 min | − | +++ (ultrafast processing within 2 min) | 2 min | − | +++ (ultrafast processing within 2 min) | 2 min | − | +++ (ultrafast processing within 2 min) | > 30 min | − | − | > 30 min | − | − | 30 min | + (processing after 10 or 30 min) | − | − | − | Incubation time at which the first cleavage or decrease of the full-length peptide was observed, pancreatic elastase (pancreatic elastase I): > 30 min |
| CC[C@H](C)[C@H](NC(=O)[C@@H]1CCCN1C(=O)[C@H](CC(C)C)NC(=O)[C@@H](NC(=O)[C@@H]1CCCN1C(=O)[C@H](CCCCN)NC(=O)[C@H](C)NC(=O)[C@H](CC(C)C)NC(=O)[C@H](CC(N)=O)NC(=O)[C@H](CC(N)=O)NC(=O)[C@@H](NC(=O)[C@H](CC(=O)O)NC(=O)[C@H](CC(N)=O)NC(=O)[C@H](CCC(=O)O)NC(=O)[C@H](CCSC)NC(=O)CN)[C@@H](C)O)[C@@H](C)O)C(=O)N[C@@H](CCCCN)C(=O)N[C@H](C(=O)N[C@@H](Cc1ccccc1)C(=O)N[C@@H](CCCNC(=N)N)C(=O)NCC(=O)N[C@@H](C)C(=O)N1CCC[C@H]1C(=O)N1CCC[C@H]1C(=O)N[C@@H](CC(N)=O)C(=O)N[C@@H](CO)C(=O)N[C@@H](Cc1ccccc1)C(=O)N[C@@H](CCC(=O)O)C(N)=O)[C@@H](C)O [PAR3-based] (H-GMENDTNNLAKPTLPIKTFRGAPPNSFE-NH2) | 2 min | +++ (ultrafast processing within 2 min) | +++ (ultrafast processing within 2 min) | 2 min | ++ (fast processing after 5 min) | +++ (ultrafast processing within 2 min) |  | +++ (ultrafast processing within 2 min) | − | 2 min | − | +++ (ultrafast processing within 2 min) |  | +++ (ultrafast processing within 2 min) | − |  | +++ (ultrafast processing within 2 min) | − | +++ (ultrafast processing within 2 min) | − |  |
| CC[C@H](C)[C@H](NC(=O)[C@H](CO)NC(=O)[C@@H]1CCCN1C(=O)[C@@H](NC(=O)[C@H](CO)NC(=O)[C@H](CC(=O)O)NC(=O)[C@H](CC(=O)O)NC(=O)CNC(=O)CNC(=O)CNC(=O)[C@@H](NC(=O)[C@H](CO)NC(=O)CNC(=O)[C@H](CO)NC(=O)[C@H](CCC(=O)O)NC(=O)[C@H](CC(=O)O)NC(=O)[C@H](Cc1ccc(O)cc1)NC(=O)[C@@H](NC(=O)[C@H](CO)NC(=O)[C@@H]1CCCN1C(=O)[C@@H](NC(=O)[C@H](CCC(N)=O)NC(=O)[C@@H](NC(=O)CNC(=O)CN)[C@@H](C)O)[C@@H](C)O)C(C)C)[C@@H](C)O)[C@@H](C)O)C(=O)N[C@@H](CC(C)C)C(=O)N1CCC[C@H]1C(=O)N[C@@H](C)C(=O)N1CCC[C@H]1C(=O)N[C@@H](CCCNC(=N)N)C(=O)NCC(=O)N[C@@H](Cc1ccc(O)cc1)C(=O)N1CCC[C@H]1C(=O)NCC(=O)N[C@@H](CCC(N)=O)C(=O)N[C@H](C(=O)N[C@@H](CS)C(=O)N[C@@H](C)C(=O)N[C@@H](CC(N)=O)C(=O)N[C@@H](CC(=O)O)C(N)=O)C(C)C [PAR4-based] (H-GGTQTPSVYDESGSTGGGDDSTPSILPAPRGYPGQVCAND-NH2) | 2 min | − | +++ (ultrafast processing within 2 min) | 2 min | − | +++ (ultrafast processing within 2 min) | > 30 min | − | − | 2 min | − | +++ (ultrafast processing within 2 min) | > 30 min | − | − | > 30 min | − | − | − | − | Incubation time at which the first cleavage or decrease of the full-length peptide was observed, pancreatic elastase (pancreatic elastase I): > 30 min |
